The text below walks through data of publication PMC3400893 (Clinical Pharmacology and Therapeutics, 2012).

The term Tmax denotes the time at which the peak concentration occurs.

Series [1] is described as follows: 28-day study: plasma LX4211 pharmacokinetics. In kind it is in vivo, human. The note with it: for Tmax: both, human, plasma, oral.
For series [2], the system named is patients with T2DM. The series can be described thus: 28-day study: safety, adverse events and clinical laboratory values.
The test system of series [3] is patients with T2DM. The series can be described thus: Single-dose three-way crossover study: pharmacodynamics. In kind it is in vivo, human.
Series [4] relates to patients with T2DM. The series can be described thus: 28-day randomized placebo-controlled study: efficacy/pharmacodynamics. In kind it is in vivo, human. The following applies: for Decrease in FPG from baseline after correcting for changes in placebo values: after 28 days; for OGTT glucose excursions above baseline FPG lower than placebo: corrected for FPG at hour 0.
The subject of another series is healthy volunteers. The series can be described thus: Phase I trial in healthy volunteers. In kind it is in vivo, human. The note with it: 300-mg dose, phase I trial (data not shown).
Another series has as its system humans. The following applies: taken orally at high doses; ref [46]; cited from earlier work.
For series [5] the following is noted: ref [47],[48]; cited from earlier work.
[6] abbreviates: 150 or 300 mg once daily for 28 days.
[7] abbreviates: single 300-mg dose of any of the LX4211 formulations.

Structures are written as SMILES. Bounds are passed on as bounds.

Regarding `CCOc1ccc(Cc2cc([C@@H]3O[C@H](SC)[C@@H](O)[C@H](O)[C@H]3O)ccc2Cl)cc1` [LX4211, (2S,3R,4R,5S,6R)-2-(4-chloro-3-(4-ethoxybenzyl)phenyl)-6-(methylthio)tetrahydro-2H-pyran-3,4,5-triol], in series [1] (150 and 300 mg, oral liquid), the “Time after dosing at which Cmax appeared” value is 0.5 to 2.0 h. Besides, the “Dose proportionality of increases in Cmax and AUC” value in series [1] (150 vs 300 mg) is listed as “slightly more than dose-proportional”. In series [1] (based on Cmax, AUC0–tau, Cmin, possibly even by day 7), the Steady state reached was ≤ 14 days. In addition, the Tmax in series [1] (Median tmax, days 14 and 28, the two dose groups) lay within 1 to 1.5 h; in series [1] (tmax, individual values, the two dose groups), 0.48 to 2.02 h. Further, the “Time at which plasma concentrations were detected” value in series [1] (each LX4211 dose, oral liquid) was ≤ 15 min. Moreover, the “Renal toxicity (laboratory data)” value in the series with patients with T2DM [2] (setting [6]) is on record as “no evidence of renal toxicity”. Moreover, in the series on patients with T2DM [2] (setting [6]), the “Treatment-emergent urinary tract infections, genital infections, CV events, episodes of hypoglycemia” value is “no treatment-emergent urinary tract infections, genital infections, CV events, or episodes of hypoglycemia”. Further, in the series on patients with T2DM [2] (LX4211-treated groups, day 1), the “24-h urine volume relative to placebo” value is reported as “slight but nonsignificant increase”. In the series on patients with T2DM [2] (LX4211-treated groups, days 1, 14, 28), the Urinary calcium excretion entry is recorded as “at no time during the study was urinary calcium excretion increased”. In the series with patients with T2DM [2] (at the doses and schedule employed (150 or 300 mg once daily, 28 days)), the Safety and tolerability entry was “safe and well tolerated”. In addition, in the series with patients with T2DM [2] (day 1, statistically significant in the 300 mg group), the “Urinary sodium and chloride excretion relative to placebo” value was “modest increases”. In addition, the “Frequency of gastrointestinal side effects relative to placebo” value with patients with T2DM [2] (even after challenge with 75 g of glucose during OGTTs) was “did not observe an increase”. For the same molecule, the “Glucagon values vs day −1” value in the series with patients with T2DM [3] (single 300-mg dose) was “not altered”. For the same molecule, in the series on patients with T2DM [3] (setting [7]), the “Plasma insulin between 0 and 13 h vs day −1” value is “significantly decreased”. Moreover, in the series on patients with T2DM [3] (setting [7]), the “Total GLP-1 between 0 and 13 h vs day −1” value is given as “significantly increased”. Moreover, the “Total PYY between 0 and 13 h vs day −1” value in the series with patients with T2DM [3] (setting [7]) is listed as “significantly increased”. Also, the “UGE over the next 24 h vs pretreatment day (day −1)” value with patients with T2DM [3] (setting [7]) is given as “significantly increased”. For the same molecule, the “FPG reduction from baseline” value in the series on patients with T2DM [4] (150 mg once daily, day 7, placebo 9 mg/dl increase) amounted to 30 mg/dL. In addition, the figures for the “Decrease in FPG from baseline after correcting for changes in placebo values” in the series on patients with T2DM [4] (150 mg) and in the series on patients with T2DM [4] (300 mg) were 39 mg/dL and 55 mg/dL, respectively. In addition, the “Net 24-h UGE increase relative to placebo” value with patients with T2DM [4] (150 mg, day 1) was found to be 44 g/day; in the series on patients with T2DM [4] (150 mg, day 28) it was 37 g/day; with patients with T2DM [4] (300 mg, day 1) it was 65 g/day; with patients with T2DM [4] (300 mg, day 28), 48 g/day. Moreover, the “OGTT glucose AUC (hour 0 to 4) lower than placebo” value is 30% with patients with T2DM [4] (150 mg, day 2); 35% with patients with T2DM [4] (150 mg, day 13); 38% with patients with T2DM [4] (150 mg, day 27); 30% in the series with patients with T2DM [4] (300 mg, day 2); 36% in the series with patients with T2DM [4] (300 mg, day 13); 39% in the series on patients with T2DM [4] (300 mg, day 27). In addition, the “OGTT glucose excursions above baseline FPG lower than placebo” value is reported as 46% in the series on patients with T2DM [4] (150 mg, day 27) and 46% in the series on patients with T2DM [4] (300 mg, day 27). In addition, the “Decrease from baseline HbA1c after correcting for changes in placebo values” in the series with patients with T2DM [4] (150 mg, day 28) was 0.66; in the series on patients with T2DM [4] (300 mg, day 28), 0.76. Besides, the “Amount of glucose excreted in the first 8 h vs the period spanning 8–24 h” value in the series with patients with T2DM [4] (LX4211-treated groups) is recorded as “comparable”. Besides, the “Total GLP-1 levels after meals” value with patients with T2DM [4] (LX4211-treated groups, day 1 (similar on day 28), post hoc analysis) is “nonsignificant increase”. The “Mean serum triglyceride (TG) level (fell to within the normal range)” value in the series on patients with T2DM [4] (both LX4211-treated groups (150 and 300 mg), by day 14) was < 151 mg/dL. In addition, the “Mean homeostasis model assessment of insulin resistance vs placebo” value in the series with patients with T2DM [4] (both LX4211 groups, day 27) is “significantly lower”. Further, the “Serum TG vs placebo” value in the series with patients with T2DM [4] (both doses, post hoc analysis) is “statistically significant TG reductions”. Also, the “24-h UGE vs placebo” value with patients with T2DM [4] (both treatment groups, days 1, 14 and 28) is “significantly increased”. In addition, the “2-h postprandial glucose (PPG) levels vs placebo” value in the series on patients with T2DM [4] (each treatment group, days 1, 7, 21 and 28) is listed as “significantly lowered”. The “Patients with HbA1c levels ≤7.0%” value in the series with patients with T2DM [4] (patients who received LX4211 (150 or 300 mg), day 28, placebo 18%) is reported as 50%. In the series on healthy volunteers, the “Tolerability and glycosuric effect” value is “well tolerated and produced a maximal glycosuric effect”.

`O=C(CCc1ccc(O)cc1)c1c(O)cc(O)cc1O[C@@H]1O[C@H](CO)[C@@H](O)[C@H](O)[C@H]1O` [Phlorizin, phlorizin]: in the series on humans, the Nausea entry is “induces nausea”. Moreover, the “Conversion in the small intestine” value in series [5] is on record as “rapidly converted to phloretin”.
